The experiment deals with T1, hT2R54 (Homo sapiens, UniProt P59534).
T1 construct: expressed in transfected cells; it overexpresses a promiscuous G protein
T1 sequence (P59534 1-338): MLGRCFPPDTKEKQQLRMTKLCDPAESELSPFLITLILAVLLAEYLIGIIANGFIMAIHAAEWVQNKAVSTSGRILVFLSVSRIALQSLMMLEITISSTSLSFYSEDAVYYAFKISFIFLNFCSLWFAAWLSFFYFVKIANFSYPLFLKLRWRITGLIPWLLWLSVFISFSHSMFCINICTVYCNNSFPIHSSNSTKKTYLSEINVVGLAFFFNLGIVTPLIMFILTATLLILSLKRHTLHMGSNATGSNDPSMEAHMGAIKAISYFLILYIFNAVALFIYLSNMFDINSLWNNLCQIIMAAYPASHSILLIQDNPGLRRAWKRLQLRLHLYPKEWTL
Nature of the experiment: Cell-based assay for measuring hT2R54 inhibition (FLIPR calcium, Fluo4AM, acetaminophen as bitter agonist). As to conditions: cells stably expressing hT2R54 and a promiscuous G protein, read-out: hT2R54 IC50. The procedure: Cells stably expressing hT2R54 and a promiscuous G protein were seeded in 384 well plates 24 hours prior to the experiment. Cells were loaded with the calcium indicator Fluo4AM, washed and loaded in a FLIPR instrument with a compound plate containing increasing doses of acetaminophen in quadruplicates and prepared at 2× of final concentration. Baseline was recorded for 10 seconds, then 25 μl of […] was added onto 25 μl of cells and resulting changes in fluorescence were monitored over an additional 3 minutes. The host cell line overexpressing the G protein but not hT2R54 was treated as described above.
The ability of a test compound that blocks bitter taste elicited through hT2R54 was measured in this assay, as follows. Cells stably expressing hT2R54 and a promiscuous G protein were seeded in 384 well plates 24 hours prior to the experiment. Cells were loaded with the calcium indicator Fluo4AM, washed and loaded in a FLIPR instrument with a compound plate containing increasing doses of acetaminophen in buffer and increasing doses of acetaminophen with depicted fixed concentrations of Cmpd 109 (Table 4). Base line was recorded for 10 seconds, then 25 μl of compound and compound mixtures were added onto 25 μl of cells and resulting changes in fluorescence were monitored over an additional 3 minutes. The concentration of test compound that blocks half of the response when the bitter compound alone is present is presented as the EC50 or IC50 value.
In the examples above, the EC50 of compounds for blocking bitter taste elicited through T2R54 was measured in the same manner.

SMILES strings stand for the structures. Read-outs that look alike come from different tables or passages of the source.

As usually defined, the IC50 is the concentration needed to halve the response being measured. For the compound `CC(=O)c1cc2c(cc1NC(=O)CN1CCN(C(=O)Cc3cccc(F)c3)CC1)OCO2` [compound 59], the IC50 (Table 2) came to 200 nM.
Regarding `CC(=O)c1cc2c(cc1NC(=O)CN1CCN(C(=O)Cc3ccncc3)CC1)OCO2` [compound 60], the IC50 (Table 2) was 80 nM.
Regarding `CC(=O)c1cc2c(cc1NC(=O)CN1CCN(C(=O)Cc3ccc(O)cc3)CC1)OCO2` [compound 61], the IC50 (Table 2) was found to be 50 nM.
In the case of `COc1ccc(CC(=O)N2CCN(CC(=O)Nc3cc4c(cc3C(C)=O)OCO4)CC2)cc1` [compound 62], for the setting “Table 2”, the IC50 came out at 200 nM.
`CC(=O)c1cc2c(cc1NC(=O)CN1CCN(C(=O)Cc3ccc(F)cc3)CC1)OCO2` [compound 63]: under “Table 2”, the IC50 was found to be 400 nM.
On the same count and under the same terms, as for `CC(=O)c1cc2c(cc1NC(=O)CN1CCN(C(=O)Cc3ccco3)CC1)OCO2` [compound 64], the figure is 100 nM; as for `CC(=O)c1cc2c(cc1NC(=O)CN1CCN(C(=O)Cc3cccs3)CC1)OCO2` [compound 65], 30 nM; as for `CC(=O)c1cc2c(cc1NC(=O)CN1CCN(C(=O)c3cnn(C)c3)CC1)OCO2` [compound 66], 17 nM.
For the compound `CC(=O)c1cc2c(cc1NC(=O)CN1CCN(C(=O)c3ccc(C)s3)CC1)OCO2` [compound 67], the IC50 (Table 2) came out at 15 nM.
Same read-out and setting: then `CC(=O)c1cc2c(cc1NC(=O)CN1CCN(C(=O)c3sccc3C)CC1)OCO2` [compound 68], with 30 nM; and `CC(=O)c1cc2c(cc1NC(=O)CN1CCN(C(=O)c3c(C)noc3C)CC1)OCO2` [compound 69], with 40 nM; and `CC(=O)c1cc2c(cc1NC(=O)CN1CCN(C(=O)c3ccon3)CC1)OCO2` [compound 70], with 20 nM.
In the case of `CC(=O)c1cc2c(cc1NC(=O)CN1CCN(C(=O)c3ccn(C)n3)CC1)OCO2` [compound 71], the IC50 (Table 2) was determined as 50 nM.
The same measure, in the same setting: as for `CC(=O)c1cc2c(cc1NC(=O)CN1CCN(C(=O)c3cnco3)CC1)OCO2` [compound 72], the figure is 60 nM.
For `CC(=O)c1cc2c(cc1NC(=O)CN1CCN(C(=O)c3cc(C)cs3)CC1)OCO2` [compound 73], the IC50 (Table 2) stood at 80 nM.
Regarding `CC(=O)c1cc2c(cc1NC(=O)CN1CCN(C(=O)c3cn(C)nc3C)CC1)OCO2` [compound 74], the concentration for half-maximal inhibition (IC50) (Table 2) turned out to be 200 nM.
In the case of `CC(=O)c1cc2c(cc1NC(=O)CN1CCN(C(=O)c3cnon3)CC1)OCO2` [compound 75], for the setting “Table 2”, the 50% inhibitory concentration (IC50) came to 100 nM.
Still for that read-out and setting: as for `CC(=O)c1cc2c(cc1NC(=O)CN1CCN(C(=O)c3nc(C)oc3C)CC1)OCO2` [compound 76], the figure is 70 nM.
With `CC(=O)c1cc2c(cc1NC(=O)CN1CCN(C(=O)c3ccn(C)c3)CC1)OCO2` [compound 77], for the setting “Table 2”, the IC50 was 30 nM.
As to `CC(=O)c1cc2c(cc1NC(=O)CN1CCN(C(=O)c3cn(C)nn3)CC1)OCO2` [compound 78], the half-maximal inhibitory concentration (IC50) (Table 2) was 30 nM.
Consider `CC(=O)c1cc2c(cc1NC(=O)CN1CCN(C(=O)c3ccoc3)CC1)OCO2` [compound 79], for which, for the setting “Table 2”, the IC50 was 30 nM.
Take `CC(=O)c1cc2c(cc1NC(=O)CN1CCN(C(=O)c3cc4ccccc4o3)CC1)OCO2` [compound 80]: the IC50 (Table 2) is 500 nM.
`CC(=O)c1cc2c(cc1NC(=O)CN1CCN(C(=O)c3ccc(C)o3)CC1)OCO2` [compound 81]: under “Table 2”, the IC50 worked out at 4 nM.
With `CCCCC(=O)N1CCN(CC(=O)Nc2cc3c(cc2OC)OCO3)CC1` [compound 82], under “Table 2”, the 50% inhibitory concentration (IC50) was 540 nM.
For `CCOC(=O)N1CCN(CC(=O)Nc2cc3c(cc2OC)OCO3)CC1` [compound 83], where the note is “Table 2”, the half-maximal inhibitory concentration (IC50) turned out to be 520 nM.
Turning to `CCCOC(=O)N1CCN(CC(=O)Nc2cc3c(cc2OC)OCO3)CC1` [compound 84], where the note is “Table 2”, the IC50 is 240 nM.
The same measure, in the same setting: as for `COc1cc2c(cc1NC(=O)CN1CCN(C(=O)C3CCCO3)CC1)OCO2` (stereo not drawn) [compound 85], the figure is 1160 nM; as for `COc1cc2c(cc1NC(=O)CN1CCN(C(=O)C3CCCCO3)CC1)OCO2` (stereo not drawn) [compound 86], 1140 nM; as for `COc1cc2c(cc1NC(=O)CN1CCN(C(=O)CC3CCOCC3)CC1)OCO2` [compound 87], 1040 nM.
The same measure, in the same setting: as for `COc1cc2c(cc1NC(=O)CN1CCN(C(=O)c3ccco3)CC1)OCO2` [compound 88], the figure is 130 nM; as for `COc1cc2c(cc1NC(=O)CN1CCN(C(=O)c3ccc(C)o3)CC1)OCO2` [compound 89], 80 nM.
For the compound `COc1cc2c(cc1NC(=O)CN1CCN(C(=O)c3ccccc3F)CC1)OCO2` [compound 90], the half-inhibitory concentration (IC50) (Table 2) amounted to 200 nM.
The same measure, in the same setting: then `COc1cc2c(cc1NC(=O)CN1CCN(C(=O)c3ccccc3OC)CC1)OCO2` [compound 91], with 280 nM; and `COc1cc2c(cc1NC(=O)CN1CCN(C(=O)c3ccccc3O)CC1)OCO2` [compound 92], with 440 nM.
Consider `COc1cc2c(cc1NC(=O)CN1CCN(C(=O)c3cccc(O)c3)CC1)OCO2` [compound 93], for which the concentration for half-maximal inhibition (IC50) (Table 2) came out at 430 nM.
For `COc1cc2c(cc1NC(=O)CN1CCN(C(=O)c3ccccn3)CC1)OCO2` [compound 94], the half-maximal inhibitory concentration (IC50) (Table 2) was 1510 nM.
Regarding `COc1cc2c(cc1NC(=O)CN1CCN(C(=O)c3cccnc3)CC1)OCO2` [compound 95], the IC50 (Table 2) came out at 1340 nM.
On the same count and under the same terms, as for `COc1cc2c(cc1NC(=O)CN1CCN(C(=O)c3ccncc3)CC1)OCO2` [compound 96], the figure is 1440 nM; as for `COc1cc2c(cc1NC(=O)CN1CCN(C(=O)c3ccc(F)cc3)CC1)OCO2` [compound 97], < 1000 nM; as for `COc1cc2c(cc1NC(=O)CN1CCN(C(=O)c3ccn(C)n3)CC1)OCO2` [compound 98], 1080 nM.
`COc1ccccc1CC(=O)N1CCN(CC(=O)Nc2cc3c(cc2OC)OCO3)CC1` [compound 99]: the half-inhibitory concentration (IC50) (Table 2) turned out to be 600 nM.
As for `COc1cc2c(cc1NC(=O)CN1CCN(C(=O)Cc3ccccc3O)CC1)OCO2` [compound 100], where the note is “Table 2”, the IC50 came to 430 nM.
`CC(=O)c1cc2c(cc1NC(=O)CN1CCN(Cc3ccccc3)CC1)OCO2` [compound 101, N-(6-acetylbenzo[d][1,3]dioxol-5-yl)-2-(4-benzylpiperazin-1-yl)acetamide]: the half-maximal inhibitory concentration (IC50) (Table 3) was 1060 nM.
Turning to `CC(=O)c1cc2c(cc1NC(=O)CN1CCN(Cc3ccccc3F)CC1)OCO2` [compound 102], the IC50 (Table 3) was 500 nM.
As to `CC(=O)c1cc2c(cc1NC(=O)CN1CCN(Cc3cccc(F)c3)CC1)OCO2` [compound 103], where the note is “Table 3”, the 50% inhibitory concentration (IC50) turned out to be 500 nM.
As to `CC(=O)c1cc2c(cc1NC(=O)CN1CCN(Cc3ccc(F)cc3)CC1)OCO2` [compound 104], the IC50 (Table 3) turned out to be 600 nM.
On to `COc1ccc(F)cc1CN1CCN(CC(=O)Nc2cc3c(cc2C(C)=O)OCO3)CC1` [compound 105], for which, under “Table 3”, the IC50 was found to be 90 nM.
Turning to `CC(=O)c1cc2c(cc1NC(=O)CN1CCN(Cc3ccccn3)CC1)OCO2` [compound 106], the IC50 (Table 3) was 300 nM.
The same measure, in the same setting: as for `CC(=O)c1cc2c(cc1NC(=O)CN1CCN(Cc3nc4ccccc4s3)CC1)OCO2` [compound 107], the figure is 4180 nM.
For the compound `CC(=O)c1cc2c(cc1NC(=O)CN1CCN(C(C(N)=O)c3ccccc3)CC1)OCO2` (stereo not drawn) [compound 108], the IC50 (Table 3) stood at 1760 nM.
For `CC(=O)c1cc2c(cc1NC(=O)CN1CCOCC1)OCO2` [compound 109, N-(6-acetylbenzo[d][1,3]dioxol-5-yl)-2-morpholinoacetamide], the concentration for half-maximal inhibition (IC50) (Table 4) turned out to be 588 nM.
The same measure, in the same setting: as for `CC(=O)c1cc2c(cc1NC(=O)C(C)N1CCOCC1)OCO2` (stereo not drawn) [compound 110, N-(6-Acetylbenzo[d][1,3]dioxol-5-yl)-2-morpholinopropanamide], the figure is 359 nM; as for `CC(=O)c1cc2c(cc1NC(=O)C(C)(C)N1CCOCC1)OCO2` [compound 111, N-(6-Acetylbenzo[d][1,3]dioxol-5-yl)-2-methyl-2-morpholinopropanamide], 207 nM; as for `CCOC(=O)[C@@H]1CCCN1CC(=O)Nc1cc2c(cc1C(C)=O)OCO2` [compound 112, Ethyl (2-((6-acetylbenzo[d][1,3]dioxol-5-yl)amino)-2-oxoethyl)-L-prolinate], 206 nM.
In the case of `CCOC(=O)C1CCCCN1CC(=O)Nc1cc2c(cc1C(C)=O)OCO2` (stereo not drawn) [compound 113, Ethyl 1-(2-((6-Acetylbenzo[d][1,3]dioxol-5-yl)amino)-2-oxoethyl)piperidine-2-carboxylate], the concentration for half-maximal inhibition (IC50) (Table 4) is 78 nM.
The same measure, in the same setting: as for `CCOC(=O)C1CCN(CC(=O)Nc2cc3c(cc2C(C)=O)OCO3)C1` (stereo not drawn) [compound 114, Ethyl 1-(2-((6-acetylbenzo[d][1,3]dioxol-5-yl)amino)-2-oxoethyl)pyrrolidine-3-carboxylate], the figure is 61 nM; as for `CCOC(=O)C1CCCN(CC(=O)Nc2cc3c(cc2C(C)=O)OCO3)C1` (stereo not drawn) [compound 115, Ethyl 1-(2-((6-Acetylbenzo[d][1,3]dioxol-5-yl)amino)-2-oxoethyl)piperidine-3-carboxylate], 9 nM.

(Values after patent publication US12295396B2, “Antagonists of T2R54 and compositions and uses thereof” (Firmenich Incorporated, priority 2018, dated 2025).)
